Measured values published in patent US20260070927A1, “INDAZOLE MACROCYCLES FOR THE TREATMENT OF AUTOIMMUNE DISEASE” (Hoffmann-La Roche Inc., priority 2022, published 2026).
Like-named read-outs stand apart in the source and are kept apart here.

How the values were obtained:
[1] = microsomes
Method: (§1) The liver microsomal stability assay is used for early assessment of metabolic stability of a test compound in liver microsomes.
(§2) Liver microsomes were preincubated with test compound for 10 minutes at 37° C. in 100 mM potassium phosphate buffer, pH 7.4. The reactions were initiated by adding NADPH regenerating system. The final incubation mixtures contained 1 μM test compound, 0.5 mg/mL liver microsomal protein, 1 mM MgCl2, 1 mM NADP, 1 unit/mL isocitric dehydrogenase and 6 mM isocitric acid in 100 mM potassium phosphate buffer, pH 7.4. After incubation times of 0, 3, 6, 9, 15 and 30 minutes at 37° C., 300 μL of cold acetonitrile (including internal standard) was added to 100 μL incubation mixture to terminate the reaction. Following precipitation and centrifugation, the amount of compound remaining in the samples were determined by LC-MS/MS. Controls of no NADPH regenerating system at zero and 30 minutes were also prepared and analyzed.

[2] = target: human stimulator of interferon genes (STING) (139-379) (Homo sapiens (Human), UniProt Q86WV6); assay: Microliter plate-based TR-FRET competition-binding assay for binders of STING; conditions: Alexa488 probe, read-out: FRET_IC50
Method in brief: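 E. coli-expressed C-terminal flag-tagged STING (139-379) at 2.5 nM with 2.5 nM Tb-anti-Flag and 250 nM Alexa488-labelled active-site probe, 30 min at room temperature. TR-FRET 520/485 nm ratio after 320 nm excitation. Percent inhibition calculated relative to the 2′3′cGAMP positive control.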

STING (IFN-β in hPBMC) = assay: hPBMC cytokine functional assay (IFN-β decrease after Baculovirus stimulation); type: cell-based; conditions: Homo sapiens, Baculovirus MOI 40, 24 hours, read-out: hPBMC_IC50
Method in brief: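 Thawed hPBMC (70K cells/well) rested ≥3 h, then dosed with compound (final 0.5% DMSO) and infected with Baculovirus at MOI 40. Secreted IFN-β read by HTRF after 24 h at 37 °C. Cell viability checked in parallel by CellTiter-Glo.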

[3] = Metabolic (liver microsomal) stability assay; conditions: human liver microsomes, 1 μM test compound
Method: as §1, §2

hERG channel = hERG channel (Homo sapiens (Human), UniProt Q12809); assay: hERG channel inhibition assay (patch-clamp, CHOhERG cells); type: cell-based
Source text: The hERG K^+ channels were cloned in humans and stably expressed in a CHO (Chinese hamster ovary) cell line. CHOhERG cells (obtained from Roche Palo Alto LLC Cell Core Facilities) were used for patch-clamp (voltage-clamp, whole-cell) experiments. Cells were stimulated by a voltage pattern to activate hERG channels and conduct IKhERG currents (rapid delayed outward rectifier potassium current of the hERG channel). After the cells were stabilized in an internal solution that contains (in mM): KCl 10, KF 100, NaCl 10, HEPES 10, EGTA 20, pH=7.2 with KOH (osmolarity 260-300 mOsm) for a few minutes, the amplitude and kinetics of IKhERG were recorded at a stimulation frequency of 0.1 Hz (6 bpm). Thereafter, the test compound was dissolved in extracellular solution that contains (in mM): NaCl 150, KCl 4, CaCl2 1.2, MgCl2 1, HEPES 10, glucose 5, pH 7.2-7.4 with NaOH (osmolarity 290-330 mOsm), and was added to the preparation at increasing concentrations. For each concentration, an attempt was made to reach a steady-state effect, usually, this was achieved within 3-10 min at which time the next highest concentration was applied. The amplitude and kinetics of IKhERG are recorded in each concentration of the drug which were compared to the control values (taken as 100%).

[4] = Single dose pharmacokinetics (SDPK) study in male C57BL/6J mice; type: in vivo; conditions: mouse
Method: Single Dose Pharmacokinetics (SDPK) Study in Male C57BL/6J Mice Pharmacokinetic properties of compounds were assessed by single dose PK studies in Male C57BL/6J Mice (vendor: WTLH-BJ). Briefly, two groups of animals were administered a single dose of respective compound intravenously (IV, bolus) at 1 mg/kg or orally (PO, by gavage) at 10 mg/kg. Blood samples were collected via Jugular vein at 5 min (only for IV), 15 min, 30 min, 1 h, 2 h, 4 h, 7 h and 24 h post-dose. Blood samples were placed into pre-chilled commercial EDTA-K2 tubes (vendor: Jiangsu Kangjian medical supplies co., LTD) and centrifuged at 3,200 g for 10 min at 4° C. to separate plasma from the samples. After centrifugation, the resulting plasma was transferred to clean tubes for bioanalysis with LC/MS/MS. The pharmacokinetic parameters were calculated using noncompartmental analysis. The volume of distribution (Vss), half-life (T1/2) and clearance (CL) were obtained based on the plasma concentration-time curve after IV dose. The peak concentration (Cmax) was recorded directly from experimental observations after PO dose. The area under the plasma concentration-time curve (AUCo-last) was calculated using the linear trapezoidal linear interpolation rule up to the last detectable concentration. The bioavailability (F) was calculated based on the dose normalized AUCo-last after IV and PO dose.

Chain of hERG channel (Q12809 whole entry): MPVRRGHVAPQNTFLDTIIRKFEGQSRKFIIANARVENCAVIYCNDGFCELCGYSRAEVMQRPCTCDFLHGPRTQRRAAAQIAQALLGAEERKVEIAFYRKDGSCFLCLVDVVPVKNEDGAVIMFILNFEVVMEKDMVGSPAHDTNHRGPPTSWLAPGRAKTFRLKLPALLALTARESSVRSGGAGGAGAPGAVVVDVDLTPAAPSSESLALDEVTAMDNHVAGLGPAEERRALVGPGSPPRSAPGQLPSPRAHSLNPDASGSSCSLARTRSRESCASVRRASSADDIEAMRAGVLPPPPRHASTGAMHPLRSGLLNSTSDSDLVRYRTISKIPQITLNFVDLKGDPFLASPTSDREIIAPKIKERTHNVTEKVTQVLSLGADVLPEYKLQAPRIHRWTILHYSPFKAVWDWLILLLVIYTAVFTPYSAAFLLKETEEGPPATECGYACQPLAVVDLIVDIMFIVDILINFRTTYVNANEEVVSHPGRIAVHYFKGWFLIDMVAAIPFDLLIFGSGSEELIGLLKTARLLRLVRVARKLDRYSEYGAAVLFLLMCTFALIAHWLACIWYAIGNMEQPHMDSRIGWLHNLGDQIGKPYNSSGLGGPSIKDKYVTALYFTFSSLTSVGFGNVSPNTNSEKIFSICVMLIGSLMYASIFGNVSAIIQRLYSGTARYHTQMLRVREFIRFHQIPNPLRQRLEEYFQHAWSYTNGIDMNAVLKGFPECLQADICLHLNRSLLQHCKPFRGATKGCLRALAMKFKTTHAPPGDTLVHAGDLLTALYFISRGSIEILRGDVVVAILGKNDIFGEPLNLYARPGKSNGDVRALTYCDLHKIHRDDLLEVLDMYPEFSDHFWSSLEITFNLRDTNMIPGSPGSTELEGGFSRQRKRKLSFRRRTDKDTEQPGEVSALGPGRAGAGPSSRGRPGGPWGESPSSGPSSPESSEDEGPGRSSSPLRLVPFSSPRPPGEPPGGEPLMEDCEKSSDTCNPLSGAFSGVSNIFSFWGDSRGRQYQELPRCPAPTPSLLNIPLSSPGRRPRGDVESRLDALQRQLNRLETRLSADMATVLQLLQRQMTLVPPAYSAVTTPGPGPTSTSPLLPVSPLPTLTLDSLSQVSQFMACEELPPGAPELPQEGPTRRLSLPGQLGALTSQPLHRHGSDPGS
Chain of human stimulator of interferon genes (STING) (139-379) (Q86WV6 139-379): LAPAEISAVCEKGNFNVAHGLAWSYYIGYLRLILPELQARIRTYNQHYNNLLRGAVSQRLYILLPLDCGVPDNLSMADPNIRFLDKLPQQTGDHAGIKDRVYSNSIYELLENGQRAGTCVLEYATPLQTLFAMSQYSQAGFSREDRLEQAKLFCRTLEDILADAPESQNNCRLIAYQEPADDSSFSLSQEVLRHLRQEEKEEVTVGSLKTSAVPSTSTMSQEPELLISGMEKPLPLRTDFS

Row | SMILES | Clearance of human microsome [1] [mL/min/kg] | IC50 [2] [nM] | IC50 (STING (IFN-β in hPBMC)) [nM] | Clearance of human microsome [3] [mL/min/kg] | IC50 (hERG channel) [nM] | IC20 (hERG channel; human, CHO cells stably expressing hERG (CHOhERG)) [nM] | clearance ([4]; male, C57BL/6J, plasma, IV 1 mg/kg) [mL/min/kg] | AUC ([4]; male, C57BL/6J, plasma, IV 1 mg/kg, read-out: IV AUCo-last) [ng·h/mL] | half-life ([4]; male, C57BL/6J, plasma, IV 1 mg/kg, read-out: T½ (converted)) [h] | Vd ([4]; male, C57BL/6J, plasma, IV 1 mg/kg, read-out: Vss) [L/kg] | Cmax ([4]; male, C57BL/6J, plasma, PO 10 mg/kg) [ng/mL] | AUC ([4]; male, C57BL/6J, plasma, PO 10 mg/kg, read-out: PO AUCo-last) [ng·h/mL] | F ([4]; dose normalized AUCo-last after IV 1 mg/kg and PO 10 mg/kg) [%]
1 | COc1cc(F)ccc1-n1ncc2c(N3C[C@@H]4C[C@H]3C(=O)N(CCCN3CCOCC3)CCCc3c5c(cccc5nn3C)-c3ccnc(n3)N4)ncnc21 [Example 47, (8S,11S)-10-[1-(4-fluoro-2-methoxy-phenyl)pyrazolo[3,4-d]pyrimidin-4-yl]-18-methyl-13-(3-morpholinopropyl)-5,7,10,13,18,19,26-heptazapentacyclo[15.6.1.1^2,6.1^8,11.0^20,24]hexacosa-1(23),2(26),3,5,17(24),19,21-heptaen-12-one] | 6.1 | 7.2 |  |  |  |  |  |  |  |  |  |  | 
2 | CN1CCCc2c3c(cccc3nn2C)-c2ccnc(n2)O[C@H]2C[C@@H](C1=O)N(c1ncnc3c1cnn3-c1ccc(F)cc1F)C2 [Example 11, (8S,11S)-10-[1-(2,4-difluorophenyl)pyrazolo[3,4-d]pyrimidin-4-yl]-13,18-dimethyl-7-oxa-5,10,13,18,19,26-hexazapentacyclo[15.6.1.1^2,6.1^8,11.0^20,24]hexacosa-1(23),2(26),3,5,17(24),19,21-heptaen-12-one] |  | 21.4 | 803 | 6.1 | > 20000 | > 10000 | 11.1 | 1500 | 1 | 0.8 | 2780 | 7120 | 48
